# Assay results from PubChem BioAssay (NCI).
# Where “and” joins values, the source holds several entries; their conditions need not be identical. Equal values may be shown once.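 Cells were grown in 96-well plates and exposed to each compound for 48 hours at five concentrations; endpoints were interpolated linearly between bracketing concentrations, or set to the highest concentration if not reached. At the GI50, growth is halved. At the TGI there is no net growth.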
# Legend:
# Test in all cases: growth of human tumour cells (NCI), 48 h
# SF-539 CNS = tested on: SF-539 CNS
# A498 renal = tested on: A498 renal
# HL-60(TB) leukemia = tested on: HL-60(TB) leukemia
# NCI-H460 lung = tested on: NCI-H460 lung
# OVCAR-3 ovarian = tested on: OVCAR-3 ovarian
# HT29 colon = tested on: HT29 colon
# HCC-2998 colon = tested on: HCC-2998 colon
# DU-145 prostate = tested on: DU-145 prostate
# HOP-62 NSCLC = tested on: HOP-62 NSCLC
# COLO 205 colon = tested on: COLO 205 colon
# K-562 leukemia = tested on: K-562 leukemia
Compound,TGI (SF-539 CNS) [µM],TGI (A498 renal) [µM],TGI (HL-60(TB) leukemia) [µM],TGI (NCI-H460 lung) [µM],TGI (OVCAR-3 ovarian) [µM],TGI (HT29 colon) [µM],TGI (HCC-2998 colon) [µM],TGI (DU-145 prostate) [µM],TGI (HOP-62 NSCLC) [µM],TGI (COLO 205 colon) [µM],TGI (K-562 leukemia) [µM],GI50 (HL-60(TB) leukemia),GI50 (HT29 colon),GI50 (K-562 leukemia)
NC(=O)N/N=C(/CC1C(=O)Oc2ccccc21)c1ccccc1O (stereo unspecified),91.1,> 100,51,> 100,> 100,> 100,91.1,> 100,> 100,> 100,> 100,,,
CSc1ccc(-c2cc(-c3nc4ccccc4[nH]3)no2)cc1,> 100,> 100,55.3,45.7,55.7,62.1,32.1,> 100,> 100,> 100,84.4,,,
COc1cc2c(cc1OC)C(=O)N(c1ccc(O)cc1)C2=O,> 100,> 100,> 100,> 100,> 100,> 100,> 100,> 100,> 100,> 100,> 100,,,
O=C1/C(=C\c2cccc(Oc3ccccc3)c2)SC(c2ccccc2)N1c1ccccc1 (stereo unspecified),93.6,> 100,> 100,> 100,> 100,> 100,> 100,> 100,> 100,> 100,> 100,,,
Cc1cc2/c(=C\c3ccc(N(C)C)cc3)c3ccccc3n2[n+]1C,5.61,9.33,6.44,2.02,2.63,9.03,1,4.16,8.45,0.354,21.4,,,
O=C(O)CCC(=O)c1ccc2c(c1)C(C(=O)O)CC2 (stereo unspecified),> 100,> 100,> 100,> 100,> 100,> 100,> 100,> 100,> 100,> 100,> 100,,,
CC(=O)OC12C3C4C1C1C2C3C41OC(C)=O (stereo unspecified),> 100,> 100,> 100,> 100,> 100,> 100,> 100,> 100,> 100,> 100,> 100,,,
CCOC(=O)c1[nH]c(-c2[nH]c(-c3[nH]c(-c4[nH]c(C(=O)OCC)c(C)c4C(=O)OCC)c(C(=O)OCC)c3C)c(C)c2C(=O)OCC)c(C(=O)OCC)c1C,> 100,> 100,> 100,> 100,> 100,> 100,> 100,> 100,> 100,> 100,> 100,,,
c1cc2c(cc1NC1=NCCO1)OCO2,> 100,> 100,> 100,> 100,> 100,> 100,> 100,> 100,> 100,> 100,> 100,,,
Cc1ccccc1OC(C)C(=O)NN1C(=O)CSC1c1ccc(Cl)cc1 (stereo unspecified),> 63.1,72.3,47.5,> 56.8,> 93.6,38.6,> 100,> 100,51.2,> 100,> 77.1,,,
COC(=O)C1Cc2cc3c(cc2C1=O)CCCC3 (stereo unspecified),> 100,> 100,> 100,> 100,> 100,> 100,> 100,> 100,> 100,> 100,> 100,,,
c1ccc(C(NCC2CCO2)(c2ccccc2)c2ccccc2)cc1 (stereo unspecified),33.6,36.1,48.8,33.9,34.5,,30.6,71.3,,> 100,> 100,,,
CC[C@@]1(O)C(=O)OCc2c1cc1n(c2=O)Cc2c-1nc1ccccc1c2/C=N\NC(=O)C1CCCN1 (stereo partly specified),0.318,2.58,> 100,10.5,43.5,> 100,> 53.7,> 100,2.16,> 100,> 100,,,
CC(C)(C)OC(=O)N(CCCCNC(=O)OCc1ccccc1)CCCNC(=O)OCc1ccccc1,> 100,> 100,53.9,> 100,> 100,> 100,> 100,> 100,> 100,> 100,> 100,,,
CC(C)(C)OC(=O)NC1CC2(C=C(Br)C(=O)C(Br)=C2)OC1=O (stereo unspecified),42.5,47.4,7.65,38.5,32.5,18.6,24.7,26.4,36.8,13.4,13.5,,,
O=C(c1nc2ccc([N+](=O)[O-])cc2[nH]c1=O)C(O)c1ccc2c(c1)OCO2 (stereo unspecified),> 100,> 100,> 100,> 100,> 100,> 100,> 100,> 100,> 100,> 100,> 100,,,
O=C1C(Br)=C(c2ccccc2)O/C1=C/C(=O)c1ccc(Br)cc1,> 100,> 100,52.4,> 100,> 100,> 100,> 100,> 100,> 100,> 100,> 100,,,
COC(CN(C(C)=O)C1CCC2(SCCS2)c2[nH]c3ccccc3c21)OC (stereo unspecified),> 100,> 100,> 100,> 100,> 100,> 100,> 100,> 100,> 100,> 100,> 100,,,
Cc1nc(C)c(N2CCN(S(=O)(=O)N(Cc3ccccc3)Cc3ccccc3)CC2)c(=O)[nH]1,42.5,> 75.7,> 100,> 100,> 100,> 100,> 100,> 100,37.9,> 100,> 100,,,
O=C(O)CCS/C(=C\C(SCCC(=O)O)c1ccc(Cl)cc1)c1ccc(Cl)cc1 (stereo unspecified),> 100,39,> 100,> 100,49,> 100,54.7,> 100,> 100,43.4,> 100,,,
CCN(CC)CCCNc1ccc2nc(C)n3c4ccc(O)cc4c(=O)c1c23,22.7,24.5,> 21.1,12.1,21.6,14.2,22.6,19.7,19.1,20.3,37.2,,,
CC(=N\N)/C(C)=N/N=C(C)/C(C)=N/N,> 100,> 100,> 100,> 100,> 100,> 100,> 100,> 100,> 100,> 100,,,,
O=C(NCCN1CCOCC1)c1cn2c(ccc3sc4ccccc4c(=O)c32)n1,> 100,> 100,36.3,18.3,> 100,25.6,54.1,> 100,> 100,> 100,> 100,,,
Clc1ccc(C(c2ccccc2Cl)C(Cl)Cl)cc1 (stereo unspecified),36.5,38.6,51.5,39.3,34.3,33.7,29.4,34.3,39.7,38.9,44.2,,,
COc1ccc(-n2c(N)c(C#N)[nH]c2=O)cc1,> 10,> 10,> 10,> 10,> 10,> 10,> 10,> 10,> 10,> 10,> 10,,,
Clc1ccc(C2=NN=C3C(c4ccccc4)=Nc4ccccc4N3C2)cc1,> 100,> 100,17.6,,> 20.1,> 25.8,> 100,> 41.9,> 100,> 100,> 100,,,
O=S(=O)(Nc1nc2ccccc2nc1Nc1ccc2ccccc2c1)c1ccccc1,45.8,> 100,68.9,28.8,8.96,25.1,29,> 100,30.8,26.3,> 100,,,
C=C(C(=O)O)[C@@H]1C[C@@H]2O[C@H]1[C@@H](O)[C@@H](C)CCCC(C)=CCC[C@@]2(C)O,> 100,> 100,> 100,> 100,> 100,> 100,> 100,> 100,> 100,> 100,> 100,10.5 µM and 32.5 µM,32.4 µM and > 100 µM,32.3 µM and 83.5 µM
COc1c(/C=C/C(C)(C)O)cc(C2CC(=O)c3c(O)cc(O)cc3O2)cc1CC=C(C)C (stereo unspecified),17.4,16.8,30.8,16.5,,16.7,8.66,17.4,,17.7,35.7,,,
Cc1ccc2c(c1)C(=O)c1nc(C)ccc1C2=O,> 100,> 100,70.3,,> 100,83,87.8,> 100,> 100,42.7,> 100,,,
